Test results published in patent US8883963B2 (Cadila Healthcare Limited, priority 2007, dated 2014).
Starred links: 1 amine or outer side, 2 acyl side, 3 side chain; linkers in the order of their positions; H or OH if unused. Non-standard residues stand in square brackets, D forms with d. Residues, ends and D or L forms follow the SMILES beside them. ξ: configuration not given here. ξBip(2'-Et-4'-OMe) = CCc1cc(OC)ccc1-c1ccc(CC(N)C(=O)O)cc1; X1 = O=C(C(CCCc1ccc(C(F)(F)F)cc1F)N[*:1])[*:2]

How the values were obtained:
[1] = Stability in simulated gastric fluid; assay type: in vitro ADME; conditions: 2 μM peptidomimetic, simulated gastric fluid pH 1.5, 37° C.; for half-life at 2 μM: read-out: half-life (t1/2) when incubated with simulated gastric fluid
Procedure: (§1) Reactions were terminated by the addition of TFA/H2O (15 mL, 10% (v/v)). […] The column was equilibrated with TFA/H20, at a flow rate of 1 mL/min.

[2] = Stability in simulated intestinal fluid; assay type: in vitro ADME; conditions: 2 μM peptidomimetic, simulated intestinal fluid pH 7.5, 37° C.; for half-life at 2 μM: read-out: half-life (t1/2) when incubated with simulated intestinal fluid
Procedure: as §1

[3] = Stability in liver microsomes; assay type: in vitro ADME; conditions: 2 μM peptidomimetic, human liver microsomes, 37° C.; for half-life at 2 μM: pH 7.8, read-out: half-life (t1/2) when incubated with liver microsomes
Procedure: as §1

[4] = Stability in human plasma; assay type: in vitro ADME; conditions: 2 μM peptidomimetic, pooled human plasma, 37° C.; for half-life at 2 μM: pH 7.8, read-out: half-life (t1/2) when incubated with human plasma
Procedure: as §1

DPP IV = DPP IV (Homo sapiens, UniProt P27487); experiment: Stability against DPP IV enzyme; assay type: in vitro ADME; conditions: 37° C.; for % degradation of peptidomimetics in 24 h when incubated with DPP-IV enzyme: 2 μM peptidomimetic; for half-life at 2 μM: DPP IV enzyme, pH 7.8, 2 μM peptidomimetic, read-out: half-life (t1/2) when incubated with DPP-IV enzyme
DPP IV, sequence (P27487 whole entry, species assumed): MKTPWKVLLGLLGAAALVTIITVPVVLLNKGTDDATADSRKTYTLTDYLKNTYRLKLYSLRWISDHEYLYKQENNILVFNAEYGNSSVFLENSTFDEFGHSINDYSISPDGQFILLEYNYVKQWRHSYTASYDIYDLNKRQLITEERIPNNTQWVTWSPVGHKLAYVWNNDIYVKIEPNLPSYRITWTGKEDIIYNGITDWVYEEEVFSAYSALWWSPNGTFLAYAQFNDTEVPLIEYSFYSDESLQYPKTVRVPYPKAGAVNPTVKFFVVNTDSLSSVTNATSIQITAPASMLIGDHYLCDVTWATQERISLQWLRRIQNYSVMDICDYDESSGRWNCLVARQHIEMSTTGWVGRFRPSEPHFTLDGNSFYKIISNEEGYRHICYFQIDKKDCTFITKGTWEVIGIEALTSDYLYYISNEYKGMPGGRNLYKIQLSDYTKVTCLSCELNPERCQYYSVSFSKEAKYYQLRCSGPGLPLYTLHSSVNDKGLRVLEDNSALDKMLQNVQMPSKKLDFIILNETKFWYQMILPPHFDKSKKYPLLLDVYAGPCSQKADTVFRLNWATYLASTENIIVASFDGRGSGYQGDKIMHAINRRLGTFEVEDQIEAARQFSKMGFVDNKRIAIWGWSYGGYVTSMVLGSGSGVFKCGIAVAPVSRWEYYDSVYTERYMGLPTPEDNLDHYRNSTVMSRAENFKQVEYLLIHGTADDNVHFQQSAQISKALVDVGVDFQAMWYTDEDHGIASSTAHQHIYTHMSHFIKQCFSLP
Procedure: as §1

Human GLP-1 receptor = biological target: T1, Human GLP-1 receptor (Homo sapiens, UniProt P43220); experiment: In vitro Human GLP-1 R agonist activity (cyclic AMP determination) in CHO/human GLP1R cells; assay type: cell-based
T1 construct: The full-length cDNA was cloned in pcDNA3.1(+); expressed in transfected cells
T1 sequence (P43220 24-463): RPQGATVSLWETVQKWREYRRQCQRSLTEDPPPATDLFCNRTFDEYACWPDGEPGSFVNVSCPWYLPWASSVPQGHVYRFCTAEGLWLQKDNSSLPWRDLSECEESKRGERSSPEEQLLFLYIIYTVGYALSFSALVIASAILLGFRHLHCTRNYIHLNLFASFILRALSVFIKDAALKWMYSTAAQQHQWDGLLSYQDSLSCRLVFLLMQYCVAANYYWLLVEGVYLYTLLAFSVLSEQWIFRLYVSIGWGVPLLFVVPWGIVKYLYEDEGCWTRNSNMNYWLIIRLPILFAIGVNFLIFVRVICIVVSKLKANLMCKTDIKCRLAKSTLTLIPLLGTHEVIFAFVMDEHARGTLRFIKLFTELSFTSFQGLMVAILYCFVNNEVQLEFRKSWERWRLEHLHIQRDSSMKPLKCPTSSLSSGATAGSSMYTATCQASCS

[5] = system: RIN5F (Rat Insulinoma) cells; experiment: In vitro glucose-dependent insulin secretion (RIN5F cell assay screening protocol); assay type: cell-based; conditions: 16.7 mM glucose load
human glucagon receptor = biological target: T2, human glucagon receptor (Homo sapiens, UniProt P47871); experiment: In vitro human glucagon antagonist activity (inhibition of cAMP production) in CHO/human glucagon R cells; assay type: cell-based; conditions: with saturated concentration of glucagon peptide
T2 construct: The full-length cDNA was cloned in pcDNA3.1 (Invitrogen); expressed in transfected cells
T2 sequence (P47871 26-477): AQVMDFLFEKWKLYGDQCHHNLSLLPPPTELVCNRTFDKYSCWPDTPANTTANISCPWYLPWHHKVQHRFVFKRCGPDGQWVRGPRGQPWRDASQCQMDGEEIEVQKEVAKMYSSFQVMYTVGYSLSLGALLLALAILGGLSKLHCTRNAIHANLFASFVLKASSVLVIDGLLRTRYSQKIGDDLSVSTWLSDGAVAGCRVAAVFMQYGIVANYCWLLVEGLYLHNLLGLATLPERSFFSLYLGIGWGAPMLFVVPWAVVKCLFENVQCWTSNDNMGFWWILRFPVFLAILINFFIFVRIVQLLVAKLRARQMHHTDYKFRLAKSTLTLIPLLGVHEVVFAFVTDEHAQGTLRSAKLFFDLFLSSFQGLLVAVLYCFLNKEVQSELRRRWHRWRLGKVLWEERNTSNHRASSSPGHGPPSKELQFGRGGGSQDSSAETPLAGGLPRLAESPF

| SMILES | % degradation of peptidomimetics in 24 h when incubated with simulated gastric fluid [1] | half-life at 2 μM [1] | % degradation of peptidomimetics in 24 h when incubated with simulated intestinal fluid [2] | half-life at 2 μM [2] | % degradation of peptidomimetics in 24 h when incubated with liver microsomes [3] | half-life at 2 μM [3] | % degradation of peptidomimetics in 24 h when incubated with human plasma [4] | % degradation of peptidomimetics in 24 h when incubated with DPP-IV enzyme (DPP IV) | Insulin secretion ([5]; 0.1 nM test compd.) | Insulin secretion ([5]; 1 nM test compd.) | Insulin secretion ([5]; 10 nM test compd.) | Human Glucagon receptor antagonistic activity shown as inhibition of cAMP production of Glucagon peptide (human glucagon receptor; 1 nM test compound) | Human Glucagon receptor antagonistic activity shown as inhibition of cAMP production of Glucagon peptide (human glucagon receptor; 10 nM test compound) | Human Glucagon receptor antagonistic activity shown as inhibition of cAMP production of Glucagon peptide (human glucagon receptor; 100 nM test compound) | Human Glucagon receptor antagonistic activity shown as inhibition of cAMP production of Glucagon peptide (human glucagon receptor; 1 μM test compound) | Human Glucagon receptor antagonistic activity shown as inhibition of cAMP production of Glucagon peptide (human glucagon receptor; 10 μM test compound) | half-life (t1/2) when incubated with simulated gastric fluid [1] | half-life (t1/2) when incubated with simulated intestinal fluid [2] | half-life at 2 μM [4] | half-life at 2 μM (DPP IV) | further results |
| --- | --- | --- | --- | --- | --- | --- | --- | --- | --- | --- | --- | --- | --- | --- | --- | --- | --- | --- | --- | --- | --- |
| CCc1cc(OC)ccc1-c1ccc(CC(NC(=O)[C@H](CC(=O)O)NC(=O)[C@H](CO)NC(=O)[C@@H](NC(=O)[C@H](Cc2ccccc2)NC(=O)[C@@H](NC(=O)CNC(=O)C(CCC#N)NC(=O)C(C)(C)NC(=O)[C@@H](N)Cc2c[nH]cn2)[C@@H](C)O)[C@@H](C)O)C(=O)NC(CCCc2ccc(Cl)cc2C)C(N)=O)cc1 (single isomer, unassigned) [compound 32] | 100% | 0.5 h | 100% | 0.5 h | 100% | 0.5 h | 77% | 75% | 12.1 ± 0.52 pg/µg/h | 14.1 ± 0.16 pg/µg/h | 28.0 ± 0.36 pg/µg/h | – | – | – | – | – | – | – | – | – | half-life (t1/2) when incubated with human plasma [4]: (9) h; Human GLP-1 R activity (cAMP release), % activity with respect to control (Human GLP-1 receptor; 1 nM test compound): 39 ± 0.11%; Human GLP-1 R activity (cAMP release), % activity with respect to control (Human GLP-1 receptor; 10 nM test compound): 80 ± 0.09%; Human GLP-1 R activity (cAMP release), % activity with respect to control (Human GLP-1 receptor; 100 nM test compound): 88 ± 0.06%; Human GLP-1 R activity (cAMP release), % activity with respect to control (Human GLP-1 receptor; 1 μM test compound): 96 ± 0.14%; Human GLP-1 R activity (cAMP release), % activity with respect to control (Human GLP-1 receptor; 10 μM test compound): 99 ± 0.19% |
| CCc1cc(OC)ccc1-c1ccc(CC(NC(=O)[C@H](CC(=O)O)NC(=O)[C@H](CO)NC(=O)[C@@H](NC(=O)[C@H](Cc2ccccc2)NC(=O)[C@@H](NC(=O)CNC(=O)C(CCC#N)NC(=O)C(C)(C)NC(=O)[C@@H](N)Cc2c[nH]cn2)[C@@H](C)O)[C@@H](C)O)C(=O)NC(CCCc2ccc(F)cc2F)C(N)=O)cc1 (single isomer, unassigned) [compound 78] | 100% | 0.5 h | 100% | 0.5 h | 100% | 0.5 h | 71% | 70% | 16.6 ± 0.41 pg/µg/h | 22.9 ± 0.32 pg/µg/h | 36.7 ± 0.11 pg/µg/h | 22 ± 0.03 pmol/ml/μg prt | 21 ± 0.05 pmol/ml/μg prt | 20 ± 0.07 pmol/ml/μg prt | 18 ± 0.04 pmol/ml/μg prt | 18 ± 0.03 pmol/ml/μg prt | – | – | – | – | half-life (t1/2) when incubated with human plasma [4]: (9) h |
| CCc1cc(OC)ccc1-c1ccc(CC(NC(=O)[C@H](CC(=O)O)NC(=O)[C@H](CO)NC(=O)[C@@H](NC(=O)C(C)(Cc2ccccc2F)NC(=O)[C@@H](NC(=O)CNC(=O)C(CCC#N)NC(=O)C(C)(C)NC(=O)[C@@H](N)Cc2c[nH]cn2)[C@H](C)O)[C@H](C)O)C(=O)N(C)C(CCCc2ccccc2F)C(N)=O)cc1 (single isomer, unassigned) [compound 132] | 14% | – | 45% | – | 81% | 1 h | 77% | 75% | 13.1 ± 0.11 pg/µg/h | 14.9 ± 0.17 pg/µg/h | 28.8 ± 0.44 pg/µg/h | 15 ± 0.11 pmol/ml/μg prt | 12 ± 0.13 pmol/ml/μg prt | 8 ± 0.09 pmol/ml/μg prt | 4 ± 0.01 pmol/ml/μg prt | 2 ± 0.08 pmol/ml/μg prt | (8) h | (6) h | 8 h | 9 h | – |
| CCc1cc(OC)ccc1-c1ccc(CC(C(=O)N(C)C(CCCc2ccccc2)C(N)=O)N(C)C(=O)[C@H](CC(=O)O)NC(=O)[C@H](CO)NC(=O)[C@@H](NC(=O)C(C)(Cc2ccccc2F)NC(=O)[C@@H](NC(=O)CNC(=O)C(CCC#N)NC(=O)C(C)(C)NC(=O)[C@@H](N)Cc2c[nH]cn2)[C@H](C)O)[C@H](C)O)cc1 (single isomer, unassigned) [compound 142] | 13% | – | 50% | – | 82% | 1 h | 80% | 77% | 12.9 ± 0.14 pg/µg/h | 15.8 ± 0.13 pg/µg/h | 29.9 ± 0.15 pg/µg/h | 10 ± 0.03 pmol/ml/μg prt | 8 ± 0.03 pmol/ml/μg prt | 6 ± 0.22 pmol/ml/μg prt | 2 ± 0.13 pmol/ml/μg prt | 0 pmol/ml/μg prt | (8) h | (6) h | 8 h | 9 h | – |
| CCc1cc(OC)ccc1-c1ccc(CC(NC(=O)[C@H](CC(=O)O)NC(=O)[C@H](CO)NC(=O)[C@@H](NC(=O)[C@H](Cc2ccccc2)NC(=O)[C@@H](NC(=O)CNC(=O)[C@H](CCC(N)=O)NC(=O)[C@H](CO)NC(=O)[C@@H](N)Cc2c[nH]cn2)[C@@H](C)O)[C@@H](C)O)C(=O)NC(CCCc2ccc(C(F)(F)F)cc2F)C(N)=O)cc1 (stereo partly shown) [compound 49] (H-HSQGTFTSD[ξBip(2'-Et-4'-OMe)][X1]-NH2) | 14% | – | 45% | – | 81% | 1 h | 77% | 75% | 16.1 ± 0.22 pg/µg/h | 22.1 ± 0.26 pg/µg/h | 36.0 ± 0.36 pg/µg/h | 10 ± 0.03 pmol/ml/μg prt | 8 ± 0.03 pmol/ml/μg prt | 6 ± 0.22 pmol/ml/μg prt | 2 ± 0.13 pmol/ml/μg prt | 0 pmol/ml/μg prt | (8) h | (6) h | 8 h | 9 h | – |
